Test results as given in patent US6541638B2, “Pyrrolidine derivatives” (Hoffman-La Roche Inc., priority 2000, dated 2003).

melting point: 173.5 °C (dec.)
Structure (SMILES): O=C([C@@H]1C[C@@H](S)CN1S(=O)(=O)c1ccc2ccccc2c1)N(CCc1nnn[nH]1)C1CC1
